# Results as given in paper PMC11470957, “Principles of paralog-specific targeted protein degradation engaging the C-degron E3 KLHDC2” (Nature Communications, 2024).
# Like-named read-outs stand apart in the source and are kept apart here.
# Biological target: BRD3 (Homo sapiens, UniProt Q15059)
# Test: Western blot of BRD3 levels after cellular dosing
# Settings: for remaining activity at 2.19382 µM: Log SJ46420 (uM) 2.19382; for remaining activity at 2.19382 µM / remaining activity at 2.49485 µM / remaining activity at 2.79588 µM / remaining activity at 3.09691 µM / remaining activity at 3.39794 µM: Rep1, Rep2; for remaining activity at 2.49485 µM: Log SJ46420 (uM) 2.49485; for remaining activity at 2.79588 µM: Log SJ46420 (uM) 2.79588; for remaining activity at 3.09691 µM: Log SJ46420 (uM) 3.09691; for remaining activity at 3.39794 µM: Log SJ46420 (uM) 3.39794
# [1] = 22Rv1, read-out: BRD3 (DMSO = 100), 22Rv1 cells
# [2] = PC-3, read-out: BRD3 (DMSO = 100), PC3 cells
# Sequence of BRD3 (Q15059 whole entry): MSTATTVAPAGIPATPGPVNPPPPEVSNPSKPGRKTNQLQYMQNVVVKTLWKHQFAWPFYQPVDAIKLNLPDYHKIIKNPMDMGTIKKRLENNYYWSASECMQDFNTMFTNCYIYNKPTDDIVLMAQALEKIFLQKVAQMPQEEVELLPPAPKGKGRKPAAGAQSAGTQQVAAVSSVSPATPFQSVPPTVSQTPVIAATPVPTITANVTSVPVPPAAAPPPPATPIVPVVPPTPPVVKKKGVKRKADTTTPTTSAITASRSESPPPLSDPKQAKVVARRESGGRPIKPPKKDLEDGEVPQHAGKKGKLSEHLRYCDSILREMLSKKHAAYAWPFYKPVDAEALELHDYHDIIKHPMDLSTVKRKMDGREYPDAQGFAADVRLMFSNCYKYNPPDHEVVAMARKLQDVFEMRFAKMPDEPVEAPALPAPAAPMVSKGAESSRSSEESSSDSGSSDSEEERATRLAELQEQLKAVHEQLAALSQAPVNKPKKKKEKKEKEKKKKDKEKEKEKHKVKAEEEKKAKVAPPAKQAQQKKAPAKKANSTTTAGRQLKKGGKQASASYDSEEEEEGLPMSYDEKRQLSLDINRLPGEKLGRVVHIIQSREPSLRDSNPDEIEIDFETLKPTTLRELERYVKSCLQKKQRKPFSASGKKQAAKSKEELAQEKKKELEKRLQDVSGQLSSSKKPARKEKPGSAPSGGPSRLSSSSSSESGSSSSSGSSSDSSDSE
structure (smiles),measurement,setting,value
COC(=O)CNC(=O)Cc1csc(-c2ccc3cccc(OCCN4CCN(C(=O)C[C@@H]5N=C(c6ccc(Cl)cc6)c6c(sc(C)c6C)-n6c(C)nnc65)CC4)c3c2)n1 [SJ46420],remaining activity at 0.63 µM,"22Rv1, 24 h, read-out: BRD3 level relative to DMSO (100%), 22Rv1, 0.63µM, 24 h, Fig S6f",45 ± 4.6%
same,remaining activity at 1.3 µM,"22Rv1, 24 h, read-out: BRD3 level relative to DMSO (100%), 22Rv1, 1.3µM, 24 h, Fig S6f",27 ± 2.2%
same,remaining activity at 2.5 µM,"22Rv1, 24 h, read-out: BRD3 level relative to DMSO (100%), 22Rv1, 2.5µM, 24 h, Fig S6f",21 ± 3.7%
same,remaining activity at 5 µM,"22Rv1, 24 h, read-out: BRD3 level relative to DMSO (100%), 22Rv1, 5µM, 24 h, Fig S6f",4.3 ± 3.5%
same,remaining activity at 10 µM,"22Rv1, 24 h, read-out: BRD3 level relative to DMSO (100%), 22Rv1, 10µM, 24 h, Fig S6f",2.9 ± 2.8%
same,remaining activity at 2.19382 µM,[1],71.3%
same,remaining activity at 2.49485 µM,[1],46.9%
same,remaining activity at 2.79588 µM,[1],42.3%
same,remaining activity at 3.09691 µM,[1],29.2%
same,remaining activity at 3.39794 µM,[1],23.9%
same,Dmax,"22Rv1, read-out: BRD3 Dmax, 22Rv1, 24 h dose",93.7%
same,remaining activity at 0.156 µM,"22Rv1, read-out: BRD3 level, Western blot quantification (DMSO = 100), Fig S6f, 22RV1 KO/rescue Dose Response, 0.156 uM",71.3%
same,remaining activity at 0.313 µM,"22Rv1, read-out: BRD3 level, Western blot quantification (DMSO = 100), Fig S6f, 22RV1 KO/rescue Dose Response, 0.313 uM",46.9%
same,remaining activity at 0.625 µM,"22Rv1, read-out: BRD3 level, Western blot quantification (DMSO = 100), Fig S6f, 22RV1 KO/rescue Dose Response, 0.625 uM",42.3%
same,remaining activity at 1.25 µM,"22Rv1, read-out: BRD3 level, Western blot quantification (DMSO = 100), Fig S6f, 22RV1 KO/rescue Dose Response, 1.25 uM",29.2%
same,remaining activity at 2.5 µM,"22Rv1, read-out: BRD3 level, Western blot quantification (DMSO = 100), Fig S6f, 22RV1 KO/rescue Dose Response, 2.5 uM",23.9%
same,remaining activity at 0.16 µM,"24 h, read-out: BRD3 level relative to DMSO (100%), PC3, 0.16µM, 24 h, Fig S6e",107 ± 8.6%
same,remaining activity at 0.31 µM,"24 h, read-out: BRD3 level relative to DMSO (100%), PC3, 0.31µM, 24 h, Fig S6e",72 ± 3.2%
same,remaining activity at 0.63 µM,"24 h, read-out: BRD3 level relative to DMSO (100%), PC3, 0.63µM, 24 h, Fig S6e",32 ± 5%
same,remaining activity at 1.3 µM,"24 h, read-out: BRD3 level relative to DMSO (100%), PC3, 1.3µM, 24 h, Fig S6e",13 ± 2.8%
same,remaining activity at 2.5 µM,"24 h, read-out: BRD3 level relative to DMSO (100%), PC3, 2.5µM, 24 h, Fig S6e",7.3 ± 2.7%
same,remaining activity at 5 µM,"24 h, read-out: BRD3 level relative to DMSO (100%), PC3, 5µM, 24 h, Fig S6e",4.8 ± 2.4%
same,remaining activity at 10 µM,"24 h, read-out: BRD3 level relative to DMSO (100%), PC3, 10µM, 24 h, Fig S6e",1.8 ± 2.1%
same,BRD3 levels in U2OS cell line with KLHDC2 knocked out,"24 h dose, Fig 6b",unaffected
same,remaining activity at 0.2 µM,"AU565, 8 h, read-out: BRD3 level relative to DMSO (100%), AU565, 0.2µM, 8 h, Fig S6c",56 ± 3.4%
same,remaining activity at 1 µM,"AU565, 8 h, read-out: BRD3 level relative to DMSO (100%), AU565, 1µM, 8 h, Fig S6c",29 ± 2.4%
same,remaining activity at 5 µM,"AU565, 8 h, read-out: BRD3 level relative to DMSO (100%), AU565, 5µM, 8 h, Fig S6c",3.9 ± 1.1%
same,remaining activity at 0.2 µM,"AU565, read-out: BRD3 level, Western blot quantification (DMSO = 100), Fig S6c, AU565 Cells, 0.2 uM",58.8%
same,remaining activity at 1 µM,"AU565, read-out: BRD3 level, Western blot quantification (DMSO = 100), Fig S6c, AU565 Cells, 1 uM",30.4%
same,remaining activity at 5 µM,"AU565, read-out: BRD3 level, Western blot quantification (DMSO = 100), Fig S6c, AU565 Cells, 5 uM",4.75%
same,remaining activity at 2.5 µM,"HEK-293T, 24 h, read-out: BRD3 level relative to DMSO (100%), 293T, 2.5µM, 24 h, Fig S6a",44 ± 2.3%
same,remaining activity at 5 µM,"HEK-293T, 24 h, read-out: BRD3 level relative to DMSO (100%), 293T, 5µM, 24 h, Fig S6a",18 ± 3.7%
same,remaining activity at 2.5 µM,"HEK-293T, read-out: BRD3 level, Western blot quantification (DMSO = 100), Fig S6a, 293T cells, 2.5 uM",46%
same,remaining activity at 5 µM,"HEK-293T, read-out: BRD3 level, Western blot quantification (DMSO = 100), Fig S6a, 293T cells, 5 uM",20.9%
same,remaining activity at 2.5 µM,"MDA-MB-468, 24 h, read-out: BRD3 level relative to DMSO (100%), MDA-MB-468, 2.5µM, 24 h, Fig S6b",41 ± 3.3%
same,remaining activity at 5 µM,"MDA-MB-468, 24 h, read-out: BRD3 level relative to DMSO (100%), MDA-MB-468, 5µM, 24 h, Fig S6b",20 ± 2.9%
same,remaining activity at 10 µM,"MDA-MB-468, 24 h, read-out: BRD3 level relative to DMSO (100%), MDA-MB-468, 10µM, 24 h, Fig S6b",15 ± 2.2%
same,remaining activity at 2 µM,"MDA-MB-468, read-out: BRD3 level, Western blot quantification (DMSO = 100), Fig S6b, MDA-MB468 Cells, 2 uM",39.3%
same,remaining activity at 5 µM,"MDA-MB-468, read-out: BRD3 level, Western blot quantification (DMSO = 100), Fig S6b, MDA-MB468 Cells, 5 uM",17.8%
same,remaining activity at 10 µM,"MDA-MB-468, read-out: BRD3 level, Western blot quantification (DMSO = 100), Fig S6b, MDA-MB468 Cells, 10 uM",13.8%
same,selectivity for BRD3 over BRD4 (DC50),PC3,~ 28 fold
same,remaining activity at 2.19382 µM,[2],108%
same,remaining activity at 2.49485 µM,[2],70.7%
same,remaining activity at 2.79588 µM,[2],29.3%
same,remaining activity at 3.09691 µM,[2],11.3%
same,remaining activity at 3.39794 µM,[2],5.44%
same,remaining activity at 1 µM,"SK-BR-3, 2 h, read-out: BRD3 level relative to DMSO (100%), SKBR3, 1µM, 2hr, Fig S6g",49 ± 6.7%
same,remaining activity at 5 µM,"SK-BR-3, 2 h, read-out: BRD3 level relative to DMSO (100%), SKBR3, 5µM, 2hr, Fig S6g",35 ± 5.2%
same,remaining activity at 1 µM,"SK-BR-3, 2 h, read-out: BRD3 level, Western blot quantification (DMSO = 100), Fig S6g, SKBR3 Time course, 1 uM, 2hr",54.5%
same,remaining activity at 5 µM,"SK-BR-3, 2 h, read-out: BRD3 level, Western blot quantification (DMSO = 100), Fig S6g, SKBR3 Time course, 5 uM, 2hr",39.4%
same,remaining activity at 1 µM,"SK-BR-3, 4 h, read-out: BRD3 level relative to DMSO (100%), SKBR3, 1µM, 4hr, Fig S6g",36 ± 6.9%
same,remaining activity at 5 µM,"SK-BR-3, 4 h, read-out: BRD3 level relative to DMSO (100%), SKBR3, 5µM, 4hr, Fig S6g",13 ± 2.9%
same,remaining activity at 5 µM,"SK-BR-3, 4 h, read-out: BRD3 level relative to DMSO (100%), SKBR3, 5µM, 4hr, Fig S6j",31 ± 5.6%
same,remaining activity at 1 µM,"SK-BR-3, 4 h, read-out: BRD3 level, Western blot quantification (DMSO = 100), Fig S6g, SKBR3 Time course, 1 uM, 4hr",41.9%
same,remaining activity at 5 µM,"SK-BR-3, 4 h, read-out: BRD3 level, Western blot quantification (DMSO = 100), Fig S6g, SKBR3 Time course, 5 uM, 4hr",15.1%
same,remaining activity at 1 µM,"SK-BR-3, 8 h, read-out: BRD3 level relative to DMSO (100%), SKBR3, 1µM, 8hr, Fig S6g",32 ± 3.5%
same,remaining activity at 5 µM,"SK-BR-3, 8 h, read-out: BRD3 level relative to DMSO (100%), SKBR3, 5µM, 8hr, Fig S6g",8.8 ± 2.6%
same,remaining activity at 1 µM,"SK-BR-3, 8 h, read-out: BRD3 level, Western blot quantification (DMSO = 100), Fig S6g, SKBR3 Time course, 1 uM, 8hr",35%
